Measurements as given in patent US20160199524A1, “RADIOSENSITIVITY OF FLUOROPHORES AND USE OF RADIOPROTECTIVE AGENTS FOR DUAL-MODALITY IMAGING” (Immunomedics, Inc., priority 2015, published 2016).

Experiment: in vivo
Conditions: mouse, in vivo, iv
Procedure: Mice were necropsied at 1 and 3 h post injection, 7 mice per time point.
Biodistribution studies were performed in Taconic nude mice bearing subcutaneous LS174T tumor xenografts.
Mice were necropsied at 1 and 3 h post injection, 6 mice per time point.

[1] = Taconic nude, % ID/org Sm. Int.
[2] = nude (Taconic), 28 uCi, total radioactivity, % ID/g Lung

For `NC(=O)[C@@H](CCCCNC(=O)CNC(=O)CCC(=O)NCCc1c[nH]cn1)NC(=O)[C@@H](Cc1ccc(O)cc1)NC(=O)[C@@H](CCCCNC(=O)CNC(=O)CCC(=O)NCCc1c[nH]cn1)NC(=O)Cc1ccc(CN2CCN(CC(=O)O)CCN(CC(=O)O)CC2)cc1` [Al^18F(IMP485)], the tissue uptake dose at 1 h (Taconic nude, % ID/org Liver) was 0.295 %ID, the tissue uptake dose at 3 h (Taconic nude, % ID/org Lung) was 0.035 %ID and the tissue uptake dose at 1 h (Taconic nude, % ID/org Muscle) was 0.012 %ID. It also gave a tissue uptake dose at 3 h (Taconic nude, % ID/org Muscle) of 0.002 %ID, a tissue uptake dose at 1 h (Taconic nude, % ID/org Scapula) of 0.095 %ID and a tissue uptake dose at 1 h [1] of 0.586 %ID. For the same molecule, the tissue uptake dose at 3 h [1] was 0.059 %ID, the tissue uptake dose at 1 h (Taconic nude, % ID/org Spleen) was 0.02 %ID and the tissue uptake dose at 3 h (Taconic nude, % ID/org Stomach) was 0.01 %ID. The tissue uptake dose at 1 h (Taconic nude, % ID/org Tumor) was 8.03 %ID, the tissue uptake at 1 h (nude (Taconic), 28 uCi, total radioactivity) was 0.114 %ID/g and the tissue uptake at 1 h (nude (Taconic), 28 uCi, total radioactivity, % ID/g Blood) was 0.165 %ID/g. For the same molecule, the tissue uptake at 1 h (nude (Taconic), 28 uCi, total radioactivity, % ID/g Lg. Int.) was 0.081 %ID/g, the tissue uptake at 1 h (nude (Taconic), 28 uCi, total radioactivity, % ID/g Liver) was 0.176 %ID/g and the tissue uptake at 1 h [2] was 0.238 %ID/g. The tissue uptake at 3 h [2] was 0.073 %ID/g, the tissue uptake at 1 h (nude (Taconic), 28 uCi, total radioactivity, % ID/g Scapula, alone, 1 h post injection) was 0.107 %ID/g and the tissue uptake at 1 h (nude (Taconic), 28 uCi, total radioactivity, % ID/g Sm. Int., alone, 1 h post injection) was 0.396 %ID/g. For the same molecule, the tissue uptake at 1 h (nude (Taconic), 28 uCi, total radioactivity, % ID/g Spleen, alone, 1 h post injection) was 0.21 %ID/g, the tissue uptake at 1 h (nude (Taconic), 28 uCi, total radioactivity, % ID/g Stomach, alone, 1 h post injection) was 0.126 %ID/g and the tissue uptake at 1 h (nude (Taconic), 28 uCi, total radioactivity, % ID/g Tumor, alone, 1 h post injection) was 0.316 %ID/g. The tissue uptake dose at 1 h (nude (Taconic), 28 uCi, total radioactivity, % ID/org Blood, alone, 1 h post injection) was 0.268 %ID, the tissue uptake dose at 1 h (nude (Taconic), 28 uCi, total radioactivity, % ID/org Kidney, alone, 1 h post injection) was 0.499 %ID and the tissue uptake dose at 1 h (nude (Taconic), 28 uCi, total radioactivity, % ID/org Lg. Int., alone, 1 h post injection) was 0.041 %ID. The tissue uptake dose at 1 h (nude (Taconic), 28 uCi, total radioactivity, % ID/org Liver, alone, 1 h post injection) was 0.22 %ID, the tissue uptake dose at 1 h (nude (Taconic), 28 uCi, total radioactivity, % ID/org Lung, alone, 1 h post injection) was 0.033 %ID and the tissue uptake dose at 1 h (nude (Taconic), 28 uCi, total radioactivity, % ID/org Scapula, alone, 1 h post injection) was 0.006 %ID. For the same molecule, the tissue uptake dose at 1 h (nude (Taconic), 28 uCi, total radioactivity, % ID/org Sm. Int., alone, 1 h post injection) was 0.353 %ID, the tissue uptake dose at 1 h (nude (Taconic), 28 uCi, total radioactivity, % ID/org Spleen, alone, 1 h post injection) was 0.018 %ID and the tissue uptake dose at 1 h (nude (Taconic), 28 uCi, total radioactivity, % ID/org Stomach, alone, 1 h post injection) was 0.057 %ID. It also gave a tissue uptake dose at 1 h (nude (Taconic), 28 uCi, total radioactivity, % ID/org Tumor, alone, 1 h post injection) of 0.081 %ID, a tissue uptake at 3 h (nude (Taconic), total radioactivity, % ID/g Kidney) of 2.22 %ID/g and a tissue uptake at 3 h (nude (Taconic), total radioactivity, % ID/g Liver) of 0.142 %ID/g. For the same molecule, the tissue uptake at 3 h (nude (Taconic), total radioactivity, % ID/g Scapula) was 0.058 %ID/g, the tissue uptake at 3 h (nude (Taconic), total radioactivity, % ID/g Spleen) was 0.138 %ID/g and the tissue uptake dose at 3 h (nude (Taconic), total radioactivity, % ID/org Kidney) was 0.319 %ID. It also gave a tissue uptake dose at 3 h (nude (Taconic), total radioactivity, % ID/org Liver) of 0.178 %ID, a tissue uptake dose at 3 h (nude (Taconic), total radioactivity, % ID/org Scapula) of 0.008 %ID and a tissue uptake dose at 3 h (nude (Taconic), total radioactivity, % ID/org Spleen) of 0.011 %ID. For the same molecule, the tissue uptake dose at 3 h (nude (Taconic), total radioactivity, % ID/org Tumor) was 8.13 %ID, the tissue uptake at 3 h (nude, 28 uCi, total radioactivity, % ID/g Lg. Int.) was 0.713 %ID/g and the tissue uptake at 3 h (nude, 28 uCi, total radioactivity, % ID/g Liver) was 0.095 %ID/g. For the same molecule, the tissue uptake at 3 h (nude, 28 uCi, total radioactivity, % ID/g Muscle) was 0.013 %ID/g, the tissue uptake at 3 h (nude, 28 uCi, total radioactivity, % ID/g Sm. Int., alone, 3 h post injection) was 0.137 %ID/g and the tissue uptake at 3 h (nude, 28 uCi, total radioactivity, % ID/g Spleen, alone, 3 h post injection) was 0.065 %ID/g. The tissue uptake at 3 h (nude, 28 uCi, total radioactivity, % ID/g Stomach, alone, 3 h post injection) was 0.041 %ID/g, the tissue uptake at 3 h (nude, 28 uCi, total radioactivity, % ID/g Tumor, alone, 3 h post injection) was 0.088 %ID/g and the tissue uptake dose at 3 h (nude, 28 uCi, total radioactivity, % ID/org Blood, alone, 3 h post injection) was 0.013 %ID. For the same molecule, the tissue uptake dose at 3 h (nude, 28 uCi, total radioactivity, % ID/org Kidney, alone, 3 h post injection) was 0.345 %ID, the tissue uptake dose at 3 h (nude, 28 uCi, total radioactivity, % ID/org Lg. Int., alone, 3 h post injection) was 0.408 %ID and the tissue uptake dose at 3 h (nude, 28 uCi, total radioactivity, % ID/org Liver, alone, 3 h post injection) was 0.114 %ID. The tissue uptake dose at 3 h (nude, 28 uCi, total radioactivity, % ID/org Scapula, alone, 3 h post injection) was 0.006 %ID, the tissue uptake dose at 3 h (nude, 28 uCi, total radioactivity, % ID/org Sm. Int., alone, 3 h post injection) was 0.119 %ID and the tissue uptake dose at 3 h (nude, 28 uCi, total radioactivity, % ID/org Spleen, alone, 3 h post injection) was 0.006 %ID. It also gave a tissue uptake dose at 3 h (nude, 28 uCi, total radioactivity, % ID/org Stomach, alone, 3 h post injection) of 0.016 %ID, a tissue uptake dose at 3 h (nude, 28 uCi, total radioactivity, % ID/org Tumor, alone, 3 h post injection) of 0.022 %ID and a tissue uptake at 1 h (nude, total radioactivity, % ID/g Blood) of 0.278 %ID/g. It also gave a tissue uptake at 1 h (nude, total radioactivity, % ID/g Lung) of 0.535 %ID/g, a tissue uptake at 1 h (nude, total radioactivity, % ID/g Sm. Int.) of 0.686 %ID/g and a tissue uptake at 1 h (nude, total radioactivity, % ID/g Stomach) of 0.534 %ID/g. For the same molecule, the tissue uptake dose at 1 h (nude, total radioactivity, % ID/org Blood) was 0.456 %ID, the tissue uptake dose at 1 h (nude, total radioactivity, % ID/org Lung) was 0.075 %ID and the tissue uptake dose at 1 h (nude, total radioactivity, % ID/org Stomach) was 0.265 %ID.
